Test results taken from US11247981B2, “Metalloenzyme inhibitor compounds” (Mycovia Pharmaceuticals, Inc., priority 2012, dated 2022).
≈ marks a conversion by molar mass, not a printed value.

Each molecule was assayed on C. albicans (assay: Minimum Inhibitory Concentration (MIC), CLSI M27-A2). Settings: Candida albicans, rating scale in μg/mL.
Assay type: cell-based
Method: A. Minimum Inhibitory Concentration (MIC) Compounds were assessed for their ability to inhibit the growth of common strains of fungus, C. albicans using a standardized procedure (CLSI M27-A2). Stock solutions of the test compounds and standards were prepared in DMSO at 1,600 μg/mL (C. albicans). Eleven, serial, one-half dilutions of compounds were prepared in 96-well plates in RPMI+MOPS. The assay concentration ranges were 8-0.001 μg/mL (C. albicans). Cell suspensions of C. albicans were prepared and added to each well at concentrations of approximately 3.7×10^3 colony-forming-units per milliliter (cfu/mL). All testing was in duplicate. The inoculated plates were incubated for approximately 48 h at 35±1° C. At the completion of incubation the wells of each plate were evaluated visually for the presence of fungal growth. […] For QC purposes C. krusei isolate ATCC 6258 (4.0×10^3 cfu/mL) was included in the VOR assay.
In the case of CC(F)(c1ccc(-c2ccc(F)cc2)cn1)C(O)(Cn1cnnn1)c1ccc(F)cc1F (centres unmarked) [Example 50, 2-(2,4-Difluorophenyl)-3-fluoro-3-(5-(4-fluorophenyl)pyridin-2-yl)-1-(1H-tetrazol-1-yl)butan-2-ol], the MIC is reported as 1.5 to 4 µg/mL (≈ 3.38 to 9.02 µM).

Same assay, conditions: rating scale in μg/mL
For OC(Cn1cnnn1)(c1ccc(F)cc1F)C(F)(F)c1ccc(-c2ccc(OCC(F)(F)F)cc2)cn1 (centres unmarked) [Example 11, 2-(2,4-Difluorophenyl)-1,1-difluoro-3-(1H-tetrazol-1-yl)-1-(5-(4-(2,2,2-trifluoroethoxy)phenyl)pyridin-2-yl)propan-2-ol], the “Candida MIC Rating” value was “A (≤0.5)”.
With OC(Cn1cnnn1)(c1ccc(F)cc1F)C(F)(F)c1ccc(-c2ccc(OCC(F)(F)F)cc2)cn1 (centres unmarked) [Example 39, 2-(2,4-Difluorophenyl)-1,1-difluoro-3-(1H-tetrazol-1-yl)-1-(5-(4-(2,2,2-trifluoroethoxy)phenyl)pyridin-2-yl)propan-2-ol] the “Candida MIC Rating” value was “C (>1.5 − 4)”.
In the case of CC(F)(c1ccc(-c2ccc(OC(F)(F)F)cc2)cn1)C(O)(Cn1cnnn1)c1ccc(F)cc1F (centres unmarked) [Example 47, 2-(2,4-Difluorophenyl)-3-fluoro-1-(1H-tetrazol-1-yl)-3-(5-(4-(trifluoromethoxy)phenyl)-pyridin-2-yl)butan-2-ol], the “Candida MIC Rating” value is reported as “A (≤0.5)”.
CC(F)(c1ccc(-c2ccc(F)cc2)cn1)C(O)(Cn1cnnn1)c1ccc(F)cc1F (centres unmarked) [Example 51, 2-(2,4-Difluorophenyl)-3-fluoro-3-(5-(4-fluorophenyl)pyridin-2-yl)-1-(1H-tetrazol-1-yl)butan-2-ol] was tested, and the “Candida MIC Rating” value was “A (≤0.5)”.
CC(F)(c1ccc(-c2ccc(C(F)(F)F)cc2)cn1)C(O)(Cn1cnnn1)c1ccc(F)cc1F (centres unmarked) [Example 52] was tested, and the “Candida MIC Rating” value was “C (>1.5 − 4)”.
In the case of CC(F)(c1ccc(-c2ccc(C(F)(F)F)cc2)cn1)C(O)(Cn1cnnn1)c1ccc(F)cc1F (centres unmarked) [Example 53], the “Candida MIC Rating” value is reported as “B (>0.5 − 1.5)”.
For CC(F)(c1ccc(-c2ccc(Cl)cc2)cn1)C(O)(Cn1cnnn1)c1ccc(F)cc1F (centres unmarked) [Example 54, 3-(5-(4-Chlorophenyl)pyridin-2-yl)-2-(2,4-difluorophenyl)-3-fluoro-1-(1H-tetrazol-1-yl)butan-2-ol], the “Candida MIC Rating” value was “C (>1.5 − 4)”.
CC(F)(c1ccc(-c2ccc(Cl)cc2)cn1)C(O)(Cn1cnnn1)c1ccc(F)cc1F (centres unmarked) [Example 55, 3-(5-(4-Chlorophenyl)pyridin-2-yl)-2-(2,4-difluorophenyl)-3-fluoro-1-(1H-tetrazol-1-yl)butan-2-ol] was tested, and the “Candida MIC Rating” value was “A (≤0.5)”.
With CC(F)(c1ccc(-c2ccc(OCC(F)(F)F)cc2)cn1)C(O)(Cn1cnnn1)c1ccc(F)cc1F (centres unmarked) [Example 56, 2-(2,4-Difluorophenyl)-3-fluoro-1-(1H-tetrazol-1-yl)-3-(5-(4-(2,2,2-trifluoroethoxy)phenyl)pyridin-2-yl)butan-2-ol] the “Candida MIC Rating” value was “C (>1.5 − 4)”.
With CC(F)(c1ccc(-c2ccc(OCC(F)(F)F)cc2)cn1)C(O)(Cn1cnnn1)c1ccc(F)cc1F (centres unmarked) [Example 57, 2-(2,4-Difluorophenyl)-3-fluoro-1-(1H-tetrazol-1-yl)-3-(5-(4-(2,2,2-trifluoroethoxy)phenyl)pyridin-2-yl)butan-2-ol] the “Candida MIC Rating” value was “A (≤0.5)”.
